# In PubChem BioAssay AID1963843 (Molecular Pharmacology Branch, DTP, NCI, 2024):
# Where “and” joins values, the source holds several entries; their conditions need not be identical. Equal values may be shown once.
# Tested on: 616215-338-R-J1-PDC complex spheroid viability
# Experiment: Anticancer human tumor 616215-338-R-J1-PDC patient-derived colon adenocarcinoma cell line growth inhibition [POLQ]
# Details: for viability, T/C: stronger effect = lower value
# Protocol: Multicellular complex tumor spheroid response to Polymerase (POL) inhibitors (novobiocin, ART-558, RP6685) in combination with a variety of drugs and investigational agents in selected tumor cell lines
# The POL inhibitors (novobiocin, ART-558, and RP6685) were evaluated both individually and in combination with standard of care and investigational anticancer small molecules within a complex spheroid model of solid tumors. . Complex spheroids include a stromal component modeled by human endothelial cells (HUVEC) and fibroblasts modeled by human mesenchymal stem cells (MSCs). The concentration ranges selected for each drug and investigational agent were based upon clinically achievable concentrations if the clinical Cmax of the agent was known.
# Compounds. The drugs and investigational agents: novobiocin (NSC847541), ART-558 (NSC835418), RP-6685 (NSC848927), peposertib (NSC802822), ceralasertib (NSC780249), elimusertib (NSC800525), camonsertib (NSC841442), AZD-1390 (NSC803789), olaparib (NSC753686), talazoparib (NSC767125), rucaparib (NSC756644), sotorasib (NSC818433), MRTX-1133 (NSC836407), SN-38 (NSC673596), topotecan (NSC609699), epotoside (NSC141540), doxorubicin (NSC123127), gemcitabine (NSC613327), 5-fluorouracil (NSC19893), paclitaxel (NSC125973), vemurafenib (NSC761431), MSA-2 (NSC828583), SN-011 (NSC837082), adavosertib (NSC754352), prexasertib (NSC758257), carboplatin (NSC241240) and oxaliplatin (NSC266046), were obtained from the National Cancer Institute (NCI) Developmental Therapeutics Program Chemical Repository (21). The FDA-approved anticancer drug set is available from the Developmental Therapeutics Program at https://dtp.cancer.gov/organization/dscb/obtaining/. […] The stock solutions were prepared in dimethyl sulfoxide (DMSO, Sigma-Aldrich, St. Louis, MO, cat. D2650), except for the platinum compounds which were prepared in saline (Quality Biological, Gaithersburg, MD, cat. 114-055-101), at 800-fold the tested concentration and stored at -70 degrees C prior to their use. All drugs and investigational agents were tested over a range starting from a high concentration at or near the clinical Cmax and decreasing in half-log increments. If the clinical Cmax for an agent had not been determined, the highest concentration tested was 10 microM, except for SN-38, which was tested at a high concentration of 1 microM.
# Cell Culture. All cells were maintained in an incubator at 37 degrees C and 5% CO2 with 95% humidity. The PDC lines were cultured according to standard operating procedures established by the NCI PDMR (https://pdmr.cancer.gov). Table 3 of the manuscript, lists the cell lines along with the number of the three cell types plated to form the mct-spheroids and media for tumor cell growth. After thawing, all PDC lines, except 997537-175-T-J1-PDC and 415267-285-R-J2-PDC, were cultured in Matrigel-coated flasks prepared with a working solution of 1X Ham's F-12 nutrient mix, without supplementation (Thermo Fisher Scientific, cat. 11765054), 100 U/mL penicillin-streptomycin (Thermo Fisher Scientific, cat. 15140122), and 2.5% Matrigel (Corning Inc., Corning, NY, cat. 354248) for the first three passages. The two PDC lines 997537-175-T-J1-PDC and 415267-285-R-J2-PDC were cultured on uncoated flasks. The 857933-349-R-J2-PDC line was cultured in 6C/Colon 1B media containing advanced DMEM/F-12 (Thermo Fisher Scientific, cat. 12634028), 10 mM HEPES (Thermo Fisher Scientific, cat. 15630080), 1X GlutaMAX supplement (Thermo Fisher Scientific, cat. 35050061), 0.1 mg/mL primocin (InvivoGen, San Diego, CA, cat. ant-pm-2), 10% defined fetal bovine serum, heat inactivated (HyClone Laboratories Inc., Logan, UT, cat. SH30070.03HI), 50% L-WRN conditioned media (ATCC, cat. CRL-3276), 1.25 mM N-Acetyl-L-cysteine (Sigma-Aldrich, cat. A9165), 10 mM nicotinamide (Sigma-Aldrich, cat. N0636), 1X B-27 supplement (Thermo Fisher Scientific, cat. 17504044), 1X N-2 supplement (Thermo Fisher Scientific, cat. […]
# 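Further: spheroids exposed to compounds for one week before readout.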
# 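Wherever viability, T/C is given: percent viability relative to DMSO vehicle wells taken as 100%.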
structure (smiles),measurement,setting,value
CCc1cc2c(N3CCc4c(cc(Cn5ccnc5)cc4-c4cn(C)nc4C(F)(F)F)C3=O)ccnc2c(OC)n1,"viability, T/C",compound 0.0316 µM,93.8% and 107% and 110%
same,"viability, T/C",compound 0.1 µM,106% and 93.5% and 101%
same,"viability, T/C",compound 0.316 µM,111% and 89.7% and 94.4%
same,"viability, T/C",compound 1 µM,107% and 75.4% and 60.1%
same,"viability, T/C",compound 3.16 µM,79.1% and 52.8% and 53.1%
same,"viability, T/C",compound 10 µM,49.8% and 47.7% and 43.4%
same,IC50,curve of compound,> 10 µM and 6.52 µM and 2.81 µM
COc1ccc([C@@H](O)c2cc(-c3ncnc4cc(N5CCOCC5)ccc34)c(F)cc2Cl)nn1 + COC1C(OC(N)=O)C(O)C(Oc2ccc3c(O)c(NC(=O)c4ccc(O)c(CC=C(C)C)c4)c(=O)oc3c2C)OC1(C)C,IC50,"curve of first compound, second compound 0.0316 µM",> 10 µM
same,IC50,"curve of first compound, second compound 0.1 µM",> 10 µM
same,IC50,"curve of first compound, second compound 0.316 µM",> 10 µM
same,IC50,"curve of first compound, second compound 1 µM",> 10 µM
same,IC50,"curve of first compound, second compound 3.16 µM",> 10 µM
same,IC50,"curve of first compound, second compound 10 µM",> 10 µM
same,"viability, T/C","second compound 0.0316 µM, first compound 0.0316 µM",109%
same,"viability, T/C","second compound 0.0316 µM, first compound 0.1 µM",105%
same,"viability, T/C","second compound 0.0316 µM, first compound 0.316 µM",110%
same,"viability, T/C","second compound 0.0316 µM, first compound 1 µM",99.4%
same,"viability, T/C","second compound 0.0316 µM, first compound 3.16 µM",105%
same,"viability, T/C","second compound 0.0316 µM, first compound 10 µM",76.1%
same,"viability, T/C","second compound 0.1 µM, first compound 0.0316 µM",109%
same,"viability, T/C","second compound 0.1 µM, first compound 0.1 µM",99%
same,"viability, T/C","second compound 0.1 µM, first compound 0.316 µM",109%
same,"viability, T/C","second compound 0.1 µM, first compound 1 µM",109%
same,"viability, T/C","second compound 0.1 µM, first compound 3.16 µM",113%
same,"viability, T/C","second compound 0.1 µM, first compound 10 µM",73.5%
same,"viability, T/C","second compound 0.316 µM, first compound 0.0316 µM",107%
same,"viability, T/C","second compound 0.316 µM, first compound 0.1 µM",101%
same,"viability, T/C","second compound 0.316 µM, first compound 0.316 µM",108%
same,"viability, T/C","second compound 0.316 µM, first compound 1 µM",100%
same,"viability, T/C","second compound 0.316 µM, first compound 3.16 µM",114%
same,"viability, T/C","second compound 0.316 µM, first compound 10 µM",77.7%
same,"viability, T/C","second compound 1 µM, first compound 0.0316 µM",96.7%
same,"viability, T/C","second compound 1 µM, first compound 0.1 µM",101%
same,"viability, T/C","second compound 1 µM, first compound 0.316 µM",116%
same,"viability, T/C","second compound 1 µM, first compound 1 µM",117%
same,"viability, T/C","second compound 1 µM, first compound 3.16 µM",110%
same,"viability, T/C","second compound 1 µM, first compound 10 µM",66.3%
same,"viability, T/C","second compound 3.16 µM, first compound 0.0316 µM",95.7%
same,"viability, T/C","second compound 3.16 µM, first compound 0.1 µM",104%
same,"viability, T/C","second compound 3.16 µM, first compound 0.316 µM",100%
same,"viability, T/C","second compound 3.16 µM, first compound 1 µM",119%
same,"viability, T/C","second compound 3.16 µM, first compound 3.16 µM",108%
same,"viability, T/C","second compound 3.16 µM, first compound 10 µM",69.7%
same,"viability, T/C","second compound 10 µM, first compound 0.0316 µM",104%
same,"viability, T/C","second compound 10 µM, first compound 0.1 µM",94.2%
same,"viability, T/C","second compound 10 µM, first compound 0.316 µM",111%
same,"viability, T/C","second compound 10 µM, first compound 1 µM",107%
same,"viability, T/C","second compound 10 µM, first compound 3.16 µM",110%
same,"viability, T/C","second compound 10 µM, first compound 10 µM",66.5%
CC(=O)O[C@H]1C(=O)[C@@]2(C)[C@H]([C@H](OC(=O)c3ccccc3)[C@]3(O)C[C@H](OC(=O)[C@H](O)[C@@H](NC(=O)c4ccccc4)c4ccccc4)C(C)=C1C3(C)C)[C@]1(OC(C)=O)CO[C@@H]1C[C@@H]2O,"viability, T/C",compound 0.00949 µM,39.3% and 41.7% and 86.3%
same,"viability, T/C",compound 0.03 µM,23.3% and 27.1% and 44.5%
same,"viability, T/C",compound 0.0949 µM,23.8% and 24.4% and 38.2%
same,"viability, T/C",compound 0.3 µM,15.6% and 17.9% and 35.5%
same,"viability, T/C",compound 0.949 µM,18% and 18.2% and 36.7%
same,"viability, T/C",compound 3 µM,21.7% and 17.8% and 34.3%
same,IC50,curve of compound,< 0.00949 µM and 0.0258 µM
